According to the supplement of paper PMC10307832:

Tests used:
Assay in all cases: relative viability (nuclei count vs DMSO), 5 days (fraction); higher = more cells survive
[1] = compound: CS(=O)(=O)c1ccc(-c2cnc(N)c(C(=O)Nc3ccccc3)n2)cc1 [VE-821] + CC1(C)CCC(c2ccc(Cl)cc2)=C(CN2CCN(c3ccc(C(=O)NS(=O)(=O)c4ccc(N[C@H](CCN5CCOCC5)CSc5ccccc5)c(S(=O)(=O)C(F)(F)F)c4)cc3)CC2)C1 [Navitoclax] (partner 0.5 µM)
Method in brief: (§1)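 Relative viability equals treated-well nuclei counts divided by vehicle-well nuclei counts. Counts came from 4× images of lung cancer cell lines grown in 1536-well plates for 5 days after pin-tool dosing on the day after seeding. Dosing used one drug alone or a fixed anchor-drug dose plus five library-drug doses (not always all listed) in √10 steps, and values are medians of duplicate plates.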

[2] = compound: CS(=O)(=O)c1ccc(C(=O)Nc2ccc(Cl)c(-c3ccccn3)c2)c(Cl)c1 [Vismodegib] + O=C(CCCCCCC(=O)Nc1ccccc1)NO [Vorinostat] (partner 1 µM)
Method in brief: as §1

[3] = compound: CS(=O)(=O)c1ccc(-c2cnc(N)c(C(=O)Nc3ccccc3)n2)cc1 [VE-821] + O=C(CCCCCCC(=O)Nc1ccccc1)NO [Vorinostat] (partner 1 µM)
Method in brief: as §1

LOU-NH91
relative viability ([1]; first compound 0.08 µM): 0.75
relative viability ([1]; first compound 0.253 µM): 0.732
relative viability ([1]; first compound 0.8 µM): 0.592
relative viability ([1]; first compound 2.53 µM): 0.777
relative viability ([1]; first compound 8 µM): 0.564
relative viability ([2]; first compound 0.08 µM): 0.884
relative viability ([2]; first compound 0.253 µM): 0.899
relative viability ([2]; first compound 0.8 µM): 0.793
relative viability ([2]; first compound 2.53 µM): 0.845
relative viability ([2]; first compound 8 µM): 0.885
relative viability ([3]; first compound 0.08 µM): 0.885
relative viability ([3]; first compound 0.253 µM): 0.879
relative viability ([3]; first compound 0.8 µM): 0.919
relative viability ([3]; first compound 2.53 µM): 0.966
relative viability ([3]; first compound 8 µM): 0.825

LU99A
relative viability ([1]; first compound 0.08 µM): 0.892
relative viability ([1]; first compound 0.253 µM): 0.858
relative viability ([1]; first compound 0.8 µM): 0.781
relative viability ([1]; first compound 2.53 µM): 0.759
relative viability ([1]; first compound 8 µM): 0.336
relative viability ([2]; first compound 0.08 µM): 0.409
relative viability ([2]; first compound 0.253 µM): 0.469
relative viability ([2]; first compound 0.8 µM): 0.498
relative viability ([2]; first compound 2.53 µM): 0.469
relative viability ([2]; first compound 8 µM): 0.509
relative viability ([3]; first compound 0.08 µM): 0.515
relative viability ([3]; first compound 0.253 µM): 0.462
relative viability ([3]; first compound 0.8 µM): 0.471
relative viability ([3]; first compound 2.53 µM): 0.431
relative viability ([3]; first compound 8 µM): 0.299

LXF-289
relative viability ([1]; first compound 0.08 µM): 1.01
relative viability ([1]; first compound 0.253 µM): 0.967
relative viability ([1]; first compound 0.8 µM): 0.989
relative viability ([1]; first compound 2.53 µM): 1.1
relative viability ([1]; first compound 8 µM): 1.01
relative viability ([2]; first compound 0.08 µM): 0.787
relative viability ([2]; first compound 0.253 µM): 0.724
relative viability ([2]; first compound 0.8 µM): 0.846
relative viability ([2]; first compound 2.53 µM): 0.731
relative viability ([2]; first compound 8 µM): 0.629
relative viability ([3]; first compound 0.08 µM): 0.78
relative viability ([3]; first compound 0.253 µM): 0.843
relative viability ([3]; first compound 0.8 µM): 0.827
relative viability ([3]; first compound 2.53 µM): 0.812
relative viability ([3]; first compound 8 µM): 0.786

NCI-H23
relative viability ([1]; first compound 0.08 µM): 0.856
relative viability ([1]; first compound 0.253 µM): 0.797
relative viability ([1]; first compound 0.8 µM): 0.553
relative viability ([1]; first compound 2.53 µM): 0.747
relative viability ([1]; first compound 8 µM): 0.491
relative viability ([2]; first compound 0.08 µM): 0.622
relative viability ([2]; first compound 0.253 µM): 0.568
relative viability ([2]; first compound 0.8 µM): 0.496
relative viability ([2]; first compound 2.53 µM): 0.434
relative viability ([2]; first compound 8 µM): 0.571
relative viability ([3]; first compound 0.08 µM): 0.759
relative viability ([3]; first compound 0.253 µM): 0.476
relative viability ([3]; first compound 0.8 µM): 0.309
relative viability ([3]; first compound 2.53 µM): 0.285
relative viability ([3]; first compound 8 µM): 0.139

NCI-H322M
relative viability ([1]; first compound 0.08 µM): 1.24
relative viability ([1]; first compound 0.8 µM): 1.39
relative viability ([1]; first compound 2.53 µM): 1.38
relative viability ([1]; first compound 8 µM): 1.08
relative viability ([2]; first compound 0.08 µM): 0.925
relative viability ([2]; first compound 0.253 µM): 0.842
relative viability ([2]; first compound 0.8 µM): 0.848
relative viability ([2]; first compound 2.53 µM): 0.851
relative viability ([2]; first compound 8 µM): 0.855
relative viability ([3]; first compound 0.08 µM): 0.903
relative viability ([3]; first compound 0.253 µM): 0.831
relative viability ([3]; first compound 0.8 µM): 0.899
relative viability ([3]; first compound 2.53 µM): 0.818
relative viability ([3]; first compound 8 µM): 0.499

NCI-H441
relative viability ([1]; first compound 0.08 µM): 0.858
relative viability ([1]; first compound 0.253 µM): 0.673
relative viability ([1]; first compound 0.8 µM): 0.38
relative viability ([1]; first compound 2.53 µM): 0.768
relative viability ([1]; first compound 8 µM): 0.563
relative viability ([2]; first compound 0.08 µM): 0.875
relative viability ([2]; first compound 0.8 µM): 0.552
relative viability ([2]; first compound 2.53 µM): 0.678
relative viability ([2]; first compound 8 µM): 0.839
relative viability ([3]; first compound 0.08 µM): 0.833
relative viability ([3]; first compound 0.253 µM): 0.765
relative viability ([3]; first compound 0.8 µM): 0.951
relative viability ([3]; first compound 2.53 µM): 0.921
relative viability ([3]; first compound 8 µM): 0.435

NCI-H460
relative viability ([1]; first compound 0.08 µM): 1.23
relative viability ([1]; first compound 0.253 µM): 1.01
relative viability ([1]; first compound 0.8 µM): 1.02
relative viability ([1]; first compound 2.53 µM): 0.646
relative viability ([1]; first compound 8 µM): 0.159
relative viability ([2]; first compound 0.08 µM): 0.71
relative viability ([2]; first compound 0.253 µM): 0.707
relative viability ([2]; first compound 0.8 µM): 0.711
relative viability ([2]; first compound 2.53 µM): 0.691
relative viability ([2]; first compound 8 µM): 0.75
relative viability ([3]; first compound 0.08 µM): 1.02
relative viability ([3]; first compound 0.253 µM): 0.619
relative viability ([3]; first compound 0.8 µM): 0.528
relative viability ([3]; first compound 2.53 µM): 0.111
relative viability ([3]; first compound 8 µM): 0.0517

NCI-H520
relative viability ([1]; first compound 0.08 µM): 1.16
relative viability ([1]; first compound 0.253 µM): 1.15
relative viability ([1]; first compound 2.53 µM): 1.1
relative viability ([1]; first compound 8 µM): 0.671
relative viability ([2]; first compound 0.08 µM): 0.71
relative viability ([2]; first compound 0.253 µM): 0.697
relative viability ([2]; first compound 0.8 µM): 0.747
relative viability ([2]; first compound 2.53 µM): 0.553
relative viability ([2]; first compound 8 µM): 0.701
relative viability ([3]; first compound 0.08 µM): 0.614
relative viability ([3]; first compound 0.253 µM): 0.779
relative viability ([3]; first compound 0.8 µM): 0.719
relative viability ([3]; first compound 2.53 µM): 0.603
relative viability ([3]; first compound 8 µM): 0.353

NCI-H596
relative viability ([1]; first compound 0.08 µM): 0.72
relative viability ([1]; first compound 0.253 µM): 1.05
relative viability ([1]; first compound 0.8 µM): 0.987
relative viability ([1]; first compound 2.53 µM): 0.894
relative viability ([1]; first compound 8 µM): 0.644
relative viability ([2]; first compound 0.08 µM): 0.682
relative viability ([2]; first compound 0.253 µM): 0.65
relative viability ([2]; first compound 0.8 µM): 0.609
relative viability ([2]; first compound 2.53 µM): 0.486
relative viability ([2]; first compound 8 µM): 0.642
relative viability ([3]; first compound 0.08 µM): 0.703
relative viability ([3]; first compound 0.253 µM): 0.579
relative viability ([3]; first compound 0.8 µM): 0.604
relative viability ([3]; first compound 2.53 µM): 0.557
relative viability ([3]; first compound 8 µM): 0.51

NCI-H647
relative viability ([1]; first compound 0.08 µM): 1.09
relative viability ([1]; first compound 0.253 µM): 1.15
relative viability ([1]; first compound 0.8 µM): 0.856
relative viability ([1]; first compound 2.53 µM): 1
relative viability ([1]; first compound 8 µM): 0.573
relative viability ([2]; first compound 0.08 µM): 0.586
relative viability ([2]; first compound 0.253 µM): 0.424
relative viability ([2]; first compound 0.8 µM): 0.63
relative viability ([2]; first compound 2.53 µM): 0.511
relative viability ([2]; first compound 8 µM): 0.654
relative viability ([3]; first compound 0.08 µM): 0.556
relative viability ([3]; first compound 0.253 µM): 0.689
relative viability ([3]; first compound 0.8 µM): 0.646
relative viability ([3]; first compound 2.53 µM): 0.469
relative viability ([3]; first compound 8 µM): 0.287

NCI-H727
relative viability ([1]; first compound 0.08 µM): 0.478
relative viability ([1]; first compound 0.253 µM): 0.57
relative viability ([1]; first compound 0.8 µM): 0.411
relative viability ([1]; first compound 2.53 µM): 0.546
relative viability ([1]; first compound 8 µM): 0.216
relative viability ([2]; first compound 0.08 µM): 1.21
relative viability ([2]; first compound 0.253 µM): 1.32
relative viability ([2]; first compound 0.8 µM): 1.1
relative viability ([2]; first compound 2.53 µM): 1.18
relative viability ([2]; first compound 8 µM): 1.2
relative viability ([3]; first compound 0.08 µM): 1.12
relative viability ([3]; first compound 0.253 µM): 1.28
relative viability ([3]; first compound 0.8 µM): 1.16
relative viability ([3]; first compound 2.53 µM): 1.02
relative viability ([3]; first compound 8 µM): 1.16
